Test results published in US10011615B2, “Heterobicyclo-substituted [1,2,4]triazolo[1,5-c]quinazolin-5-amine compounds with A2A anatagonist properties” (Merck Sharp & Dohme Corp., priority 2012, dated 2018).
Several values for one entry are separate records, joined by “and”; a condition that tells them apart may be missing. Identical values can stand only once. Counter-ions that a name gives are not always drawn.

Biological target: T1, human A2a receptor (Homo sapiens, UniProt P29274)
T1 construct: purchased Perkin-Elmer RBHA2AM400UA; host or cells: HEK293 cell membranes
T1 sequence (P29274 whole entry): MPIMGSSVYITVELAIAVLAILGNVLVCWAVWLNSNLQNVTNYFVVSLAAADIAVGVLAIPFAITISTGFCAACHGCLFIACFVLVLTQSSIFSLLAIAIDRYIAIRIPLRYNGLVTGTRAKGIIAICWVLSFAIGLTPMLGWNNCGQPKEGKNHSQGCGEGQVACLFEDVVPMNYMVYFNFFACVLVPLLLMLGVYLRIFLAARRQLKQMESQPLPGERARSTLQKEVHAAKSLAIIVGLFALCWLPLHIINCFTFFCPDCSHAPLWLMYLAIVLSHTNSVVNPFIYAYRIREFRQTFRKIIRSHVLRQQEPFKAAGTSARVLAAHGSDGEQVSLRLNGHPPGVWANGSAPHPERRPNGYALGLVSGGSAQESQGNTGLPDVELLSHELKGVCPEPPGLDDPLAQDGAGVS
Test: A2a receptor competition binding assay using Scintillation Proximity technology
Conditions: membranes from HEK293 cells expressing human A2a receptor; 0.5 nM tritiated radioligand; SPA beads; 1 h room temperature
In short: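 Membranes of HEK293 cells expressing human A2a, pretreated with adenosine deaminase, incubated 1 h at room temperature with 0.5 nM tritiated pyrazolotriazolopyrimidine antagonist (final) and compound (3000 to 0.15 nM) on WGA SPA beads in Ca/Mg-free PBS with 10 mM MgCl2. Ki from EC50 via Cheng-Prusoff.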

EC50	SMILES
6.7 nM	CCc1nnc2n1CCN(CCc1nc3c4cccc(F)c4nc(N)n3n1)C2 [Ex-86]
146 nM	COc1cccc2c1nc(N)n1nc(CN3CCn4c(nnc4SC)C3)nc21 [Ex-138]
3.9 nM	COc1cccc2c1nc(N)n1nc(CN3CCc4ccc(-c5cnc(N)nc5C(F)(F)F)cc4C3)nc21 [Ex-186, 2-((7-(2-amino-4-(trifluoromethyl)pyrimidin-5-yl)-3,4-dihydroisoquinolin-2(1H)-yl)methyl)-7-methoxy-[1,2,4]triazolo[1,5-c]-quinazolin-5-amine]
3 nM	COc1cccc2c1nc(N)n1nc(C[C@@H](C)N3CCc4nc(C)sc4C3)nc21 [Ex-216, (R)-7-methoxy-2-(2-(2-methyl-6,7-dihydrothiazolo[5,4-c]pyridin-5(4H)-yl)propyl)-(1,2,4]triazolo[1,5-c]quinazolin-5-amine]
13.6 nM	COc1cccc2c1nc(N)n1nc(CCN3Cc4ccc(N5CCCC5)nc4C3)nc21 [Ex-65]
3.4 nM	COc1cccc2c1nc(N)n1nc(CCN3CCn4c(Br)nnc4C3)nc21 [Ex-3, 2-(2-(3-bromo-5,6-dihydro-[1,2,4]triazolo[4,3-a]pyrazin-7(8H)-yl)ethyl)-7-methoxy-[1,2,4]triazolo[1,5-c]quinazolin-5-amine]
29.9 nM	COc1cccc2c1nc(N)n1nc(CN3CCn4c(C(F)(F)F)nnc4C3(C)C)nc21 [Ex-146, 2-((8,8-dimethyl-3-(trifluoromethyl)-5,6-dihydro-[1,2,4]triazolo[4,3-a]pyrazin-7(8H)-yl)methyl)-7-methoxy-[1,2,4]triazolo[1,5-c]quinazolin-5-amine]
1.5 nM	COc1cccc2c1nc(N)n1nc(CN3CCCCc4ccc(Cl)nc43)nc21 [Ex-160, 2-((2-chloro-7,8-dihydro-5H-pyrido[2,3-b]azepin-9(6H)-yl)methyl)-7-methoxy-[1,2,4]triazolo[1,5-c]quinazolin-5-amine]
0.3 nM	COc1cccc2c1nc(N)n1nc(CCN3Cc4nc(C)oc4C3)nc21 [Ex-244, 7-methoxy-2-(2-(2-methyl-4H-pyrrolo[3,4-d]oxazol-5(6H)-yl)ethyl)-[1,2,4]triazolo[1,5-c]quinazolin-5-amine]
5.8 nM	COc1cccc2c1nc(N)n1nc(CCN3Cc4ccc(N5CCN(C)CC5)nc4C3)nc21 [Ex-63, 7-methoxy-2-(2-(2-(4-methylpiperazin-1-yl)-5H-pyrrolo[3,4-b]pyridin-6(7H)-yl)ethyl)-[1,2,4]triazolo[1,5-c]quinazolin-5-amine]
4.9 nM	CC[C@H](Cc1nc2c3cccc(OC)c3nc(N)n2n1)N1Cc2cccnc2C1 [Ex-112]
56.2 nM	Nc1nc2cc(F)ccc2c2nc(CCN3Cc4cccc(F)c4C3)nn12 [Ex-96]
2.3 nM	COc1cccc2c1nc(N)n1nc(CCN3CCc4nc(C(F)(F)F)[nH]c4C3)nc21 [Ex-16, 7-methoxy-2-(2-(2-(trifluoromethyl)-6,7-dihydro-3H-imidazo[4,5-c]pyridin-5(4H)-yl)ethyl)-[1,2,4]triazolo[1,5-c]quinazolin-5-amine]
9.1 nM	COc1cccc2c1nc(N)n1nc(CN3CCc4ccc(CC(=O)Nc5cccnc5)cc4C3)nc21 [Ex-173, 2-(2-((5-amino-7-methoxy-[1,2,4]triazolo[1,5-c]quinazolin-2-yl)methyl)-1,2,3,4-tetrahydroisoquinolin-7-yl)-N-(pyridine-3-yt)acetamide]
4.6 nM	COc1cccc2c1nc(N)n1nc(CN3Cc4ccc(-c5cncnc5)cc4C3)nc21 [Ex-175]
7.6 nM	COc1cccc2c1nc(N)n1nc(CCN3Cc4cncnc4C3)nc21 [Ex-19, 2-(2-(5H-pyrrolo[3,4-d]pyrimidin-6(7H)-yl)ethyl)-7-methoxy-[1,2,4]triazolo[1,5-c]quinazolin-5-amine]

EC50	SMILES
9.6 nM	COc1cccc2c1nc(N)n1nc(CCN3CCCn4nccc43)nc21 [Ex-59, 2-(2-(6,7-dihydropyrazolo[1,5-a]pyrimidin-4(5H)-yl)ethyl)-7-methoxy-[1,2,4]triazolo[1,5-c]quinazolin-5-amine]
1.3 nM	CCc1nc2c(s1)CN(CCc1nc3c4cccc(OC)c4nc(N)n3n1)C2 [Ex-243, 2-(2-(2-ethyl-4H-pyrrolo[3,4-d]thiazol-5(6H)-yl)ethyl)-7-methoxy-[1,2,4]triazolo[1,5-c]quinazolin-5-amine]
10.1 nM and 14.3 nM	COc1cccc2c1nc(N)n1nc(CC(CF)N3Cc4cccnc4C3)nc21 (centres unmarked) [Ex-104]
8.5 nM	COc1cccc2c1nc(N)n1nc(CN3Cc4ccc(C(F)(F)F)cc4C3)nc21 [Ex-127, 7-methoxy-2-((2,3,4,5-(trifluoromethyl)isoindolin-2-yl)methyl)-[1,2,4]triazolo[1,5-c]quinazolin-5-amine]
73.7 nM	Nc1nc2cc(F)ccc2c2nc(CCN3Cc4cccnc4C3)nn12 [Ex-92]
2.8 nM	COc1cccc2c1nc(N)n1nc(CCN3Cc4oc(C)nc4C(C)(C)C3)nc21 [Ex-235, 7-Methoxy-2-(2-(2,7,7-trimethyl-6,7-dihydro-oxazolo[5,4-c]pyridin-5(4H)-yl)ethyl)-[1,2,4]triazolo[1,5-c]quinazolin-5-amine, TFA]
9.6 nM	COc1cccc2c1nc(N)n1nc(CCN3CCn4c(nnc4C(F)(F)F)C3)nc21 [Ex-17, 7-methoxy-2-(2-(3-(trifluoromethyl)-5,6-dihydro[1,2,4]triazolo[4,3-a]pyrazin-7(8H)-yl)ethyl)-[1,2,4]triazolo[1,5-c]quinazolin-5-amine]
1.4 nM	COc1cccc2c1nc(N)n1nc(CCN3CCc4c(c(C(F)(F)F)nn4C)C3)nc21 [Ex-32, 7-methoxy-2-(2-(1-methyl-3-(trifluoromethyl)-677-dihydro-1H-pyrazolo[4,3-c]pyridin-5(4H)-yl)ethyl)-[1,2,4]triazolo[1,5-c]quinazolin-5-amine]
17.5 nM	COc1cccc2c1nc(N)n1nc(CN3Cc4nc(C(C)C)sc4C3)nc21 [Ex-149, 2-((2-isopropyl-4H-pyrrolo[3,4-d]thiazol-5(6H)-yl)methyl)-7-methoxy-[1,2,4]triazolo[1,5-c]quinazolin-5-amine]
149 nM	COc1cccc2c1nc(N)n1nc(CN3CCn4cnnc4C3)nc21 [Ex-141, 2-((5-dihydro-[1,2,4]triazolo[4,3-a]pyrazin-7(8H)-yl)methyl)-7-methoxy-[1,2,4]triazolo[1,5-c]quinazolin-5-amine]
2.3 nM	COc1cccc2c1nc(N)n1nc(CCN3CCc4oncc4C3)nc21 [Ex-35, 2-(2-(6,7-dihydroisoxazolo[4,5-c]pyridin-5(4H)-yl)ethyl)-7-methoxy-[1,2,4]triazolo[1,5-c]quinazolin-5-amine]
284 nM	COc1cccc2c1nc(N)n1nc(CN3CCn4c(nnc4C(F)(F)F)C3)nc21 [Ex-153, 7-methoxy-2-((3-(trifluoromethyl)-5,6-dihydro[1,2,4]triazolo[4,3-a]pyrazin-7(8H)-yl)methyl)-[1,2,4]triazolo[1,5-c]quinazolin-5-amine]
2.9 nM	COc1cccc2c1nc(N)n1nc(CCN3CCn4c(nnc4C(=O)NC(C)(C)C)C3)nc21 [Ex-2, 7-(2-(5-amino-7-methoxy-[1,2,4]triazolo[1,5-c]quinazolin-2-yl)ethyl)-N-tert-butyl-5,6,7,8-tetrahydro-[1,2,4]triazolo[4,3-a]pyrazine-3-carboxamide]
27.9 nM	Cc1cccc2c1nc(N)n1nc(CCN3CCc4ccccc4C3)nc21 [Ex-90, 2-(2-(3,4-dihydroisoquinolin-2(1H)-yl)ethyl)-7-methyl-[1,2,4]triazolo[1,5-c]quinazolin-5-amine]
2.3 nM	COc1cccc2c1nc(N)n1nc(CCN3CCCn4nc(C)cc4C3)nc21 [Ex-60, 7-methoxy-2-(2-(2-methyl-7,8-dihydro-4H-pyrazolo[1,5-a][1,4]diazepin-5(6H)-yl)ethyl)-[1,2,4]triazolo[1,5-c]quinazolin-5-amine]
3.4 nM	COc1cccc2c1nc(N)n1nc(CCN3CCc4ncsc4C3)nc21 [Ex-56, 2-(2-(6,7-dihydrothiazolo[5,4-c]pyridin-5(4H)-yl)ethyl)-7-methoxy-[1,2,4]triazolo[1,5-c]quinazolin-5-amine]
